Measured values published in patent US20230295149A1, “MONOBACTAM COMPOUNDS, THEIR PREPARATION AND USE AS ANTIBACTERIAL AGENTS” (NINGXIA ACADEMY OF AGRICULTURE AND FORESTRY SCIENCES, priority 2020, published 2023).

Key:
Assay in all cases: MIC determination, broth microdilution
Type in all cases: cell-based
A. baumannii 19606 = settings: Acinetobacter baumannii, 37° C., 18-24 hours, read-out: Strain8 MIC
Protocol: (§1) Compounds of this invention were tested for antimicrobial activity by determining minimum inhibitory concentrations (MICs, in μg/mL) using the broth microdilution method according to the guidelines of the Clinical Laboratories and Standards Institute (“Methods for Dilution Antimicrobial Susceptibility Tests for Bacteria that Grow Aerobically”, Approved standard, 7th ed., Clinical and Laboratory Standards Institute (CLSI) Document M7-A8, Wayne, Pa., USA, 2009.). Test compounds were dissolved in DMSO. The compounds were then diluted in microbial growth medium (Mueller Hinton Broth II, cation adjusted) resulting in a final concentration range of 0.063-64 μg/mL in serial two-fold dilution. In all cases the final DMSO concentration was less than 0.5%. Bacteria were added to 96-well microtitre plates containing the two-fold dilutions of the compounds; the final cell density was approximately 5×10^5 colony forming units/mL (CFU/mL). Plates were incubated at 37° C. for 18-24 hours and read visually. The MIC, i.e. the lowest concentration of the test compound that inhibited visible growth of the bacteria, was recorded. The same assay conditions were used when the compounds of this invention were tested in combination with—lactamase inhibitors. While the compounds of this invention were serially diluted as described above, a constant concentration of the inhibitor of 4 mg/L was used. Bacterial strains that were used to evaluate the antimicrobial activity using the MIC determination included but were not limited to E. coli clinical isolate, E. coli 8739, K. pneumoniae clinical isolate, K. pneumoniae 700603, E. cloacae clinical isolate, E. cloacae 700323, A. baumannii clinical isolate, A. baumannii 19606, P. aeruginosa clinical isolate, P. aeruginosa 9027.

[1] = system: A. baumannii clinical isolate; settings: Acinetobacter baumannii, 37° C., 18-24 hours, read-out: Strain 7 MIC
Protocol: as §1

E. cloacae 700323 = settings: Enterobacter cloacae, 37° C., 18-24 hours, read-out: Strain 6 MIC
Protocol: as §1

[2] = system: E. cloacae clinical isolate; settings: Enterobacter cloacae, 37° C., 18-24 hours, read-out: Strain5 MIC
Protocol: as §1

E. coli 8739 = settings: Escherichia coli, 37° C., 18-24 hours, read-out: Strain 2 MIC
Protocol: as §1

E. coli clinical isolate = settings: Escherichia coli, 37° C., 18-24 hours, read-out: Strain 1 MIC
Protocol: as §1

K. pneumoniae 700603 = settings: Klebsiella pneumoniae, 37° C., 18-24 hours, read-out: Strain 4 MIC
Protocol: as §1

[3] = system: K. pneumoniae clinical isolate; settings: Klebsiella pneumoniae, 37° C., 18-24 hours, read-out: Strain 3 MIC
Protocol: as §1

P. aeruginosa 9027 = settings: Pseudomonas aeruginosa, 37° C., 18-24 hours, read-out: Strain 10 MIC
Protocol: as §1

[4] = system: P. aeruginosa clinical isolate; settings: Pseudomonas aeruginosa, 37° C., 18-24 hours, read-out: Strain 9 MIC
Protocol: as §1

| MIC (A. baumannii 19606) | MIC [1] | MIC (E. cloacae 700323) | MIC [2] | MIC (E. coli 8739) | MIC (E. coli clinical isolate) | MIC (K. pneumoniae 700603) | MIC [3] | MIC (P. aeruginosa 9027) | MIC [4] | Compound |
| --- | --- | --- | --- | --- | --- | --- | --- | --- | --- | --- |
| 8 µg/mL | 16 µg/mL | 8 µg/mL | 8 µg/mL | 0.5 µg/mL | 2 µg/mL | 8 µg/mL | 2 µg/mL | 1 µg/mL | 4 µg/mL | CC1(C)[C@H](NC(=O)/C(=N\O[C@@H](COc2ccc(C(=N)N[C@@H]3CCCNC3)cc2)C(=O)O)c2nc(N)sc2Cl)C(=O)N1OS(=O)(=O)O [Example 3, (S)-2-((((Z)-1-(2-Amino-5-chlorothiazol-4-yl)-2-(((S)-2,2-dimethyl-4-oxo-1-(sulfooxy)azetidin-3-yl)amino)-2-oxoethylidene)amino)oxy)-3-(4-(N—((R)-piperidin-3-yl)carbamimidoyl)phenoxy)propanoic acid] |
| 32 µg/mL | 8 µg/mL | 64 µg/mL | 8 µg/mL | 0.125 µg/mL | 0.5 µg/mL | 64 µg/mL | 16 µg/mL | 1 µg/mL | 1 µg/mL | CC1(C)[C@H](NC(=O)/C(=N\O[C@@H](COc2ccc(C(=N)NC3CCNCC3)cc2)C(=O)O)c2nsc(N)n2)C(=O)N1OS(=O)(=O)O [Example 2, (S)-2-((((Z)-1-(5-Amino-1,2,4-thiadiazol-3-yl)-2-(((S)-2,2-dimethyl-4-oxo-1-(sulfooxy)azetidin-3-yl)amino)-2-oxoethylidene)amino)oxy)-3-(4-(N-(piperidin-4-yl)carbamimidoyl)phenoxy)propanoic acid] |
| > 64 µg/mL | > 64 µg/mL | > 64 µg/mL | > 64 µg/mL | > 64 µg/mL | > 64 µg/mL | > 64 µg/mL | > 64 µg/mL | > 64 µg/mL | > 64 µg/mL | CC(C)(O/N=C(\C(=O)N[C@@H]1C(=O)N2C(C(=O)[O-])=C(C[n+]3ccccc3)CS[C@H]12)c1csc(N)n1)C(=O)O [CAZ, Ceftazidime, reference compound] |
